Experimental data: ChEMBL document CHEMBL3853304, “Synthesis and biological screening for cytotoxic activity of N-substituted indolines and morpholines” (Eur J Med Chem, 2016)
Activity calls are given as the source filed them. The calls are words filed in the database; no cut-off is given here.

Tests used:
[1] = (§1) Cytotoxicity against human U2OS cells assessed as cell death at 100 uM after 24 hrs by trypan blue exclusion assay; assay type: functional
[2] = Induction of apoptosis in HEK293 cells at IC50 after 24 hrs by Alexa fluor-Annexin V/DAPI staining-based epifluorescence microscopic analysis; assay type: cell-based; settings: human, hek293, 24 h
U2OS [3] = test: Induction of apoptosis in human U2OS cells assessed as necrotic cells at IC50 after 24 hrs by propidium iodide based epifluorescence microscopic analysis (reference value: 3 %); assay type: functional
U2OS [4] = test: Inhibition of cell migration in human U2OS cells at IC50 measured after 10 hrs by scratch migration assay; assay type: functional
U2OS [5] = test: Induction of apoptosis in human U2OS cells at IC50 after 24 hrs by Alexa fluor-Annexin V/DAPI staining-based epifluorescence microscopic analysis; assay type: functional
U2OS [6] = test: Inhibition of cell migration in human U2OS cells at IC50 measured after 2 hrs by scratch migration assay; assay type: functional
U2OS [7] = test: Induction of apoptosis in human U2OS cells assessed as increase in intracellular mitochondrial Ca2+ levels at IC50 by ratiometric pericam-mt based fluorescence microscopic analysis; assay type: functional, cell-based
U2OS [8] = test: (§2) Cytotoxicity against human U2OS cells assessed as reduction in cell viability after 24 hrs by trypan blue exclusion assay; assay type: functional, cell-based
[9] = as §2; assay type: functional, cell-based
U2OS [10] = test: Induction of apoptosis in human U2OS cells assessed as apoptotic cells at IC50 after 24 hrs by propidium iodide based epifluorescence microscopic analysis (reference value: 2 %); assay type: functional
U2OS [11] = test: Inhibition of cell migration in human U2OS cells assessed as detached adherent cells at IC50 measured after 10 hrs by light microscopic analysis; assay type: functional, cell-based
[12] = Induction of apoptosis in HEK293 cells assessed as increase in intracellular mitochondrial Ca2+ levels at IC50 by ratiometric pericam-mt based fluorescence microscopic analysis; assay type: cell-based; settings: human
U2OS [13] = test: Induction of apoptosis in human U2OS cells assessed as apoptotic cells at IC50 after 48 hrs by propidium iodide based epifluorescence microscopic analysis (reference value: 2 %); assay type: functional
U2OS [14] = test: Inhibition of cell migration in human U2OS cells at IC50 after 2 to 10 hrs by scratch migration assay; assay type: functional, cell-based
U2OS [15] = test: Induction of apoptosis in human U2OS cells assessed as necrotic cells at IC50 after 48 hrs by propidium iodide based epifluorescence microscopic analysis (reference value: 3 %); assay type: functional
U2OS [16] = test: Inhibition of cell migration in human U2OS cells assessed as disturbed monolayer at IC50 measured after 10 hrs by light microscopic analysis; assay type: functional, cell-based
U2OS [17] = test: as §1; assay type: functional

## Oc1ccccc1C(c1ccccc1)N1CCOCC1 (stereo unspecified)
[1]
  Activity: 20%

## Cc1ccc(C(c2cc([N+](=O)[O-])ccc2O)N2CCc3ccccc32)cc1 (stereo unspecified)
[2]
  Activity: 30%
U2OS [3]
  Activity: 12%
U2OS [4]
  inhibition (INH): 32%
U2OS [5]
  Activity: 43%
U2OS [6]
  inhibition (INH): 7%
U2OS [7]
  Activity: Active
U2OS [8]
  Activity: Dose-dependent effect
[9]
  IC50: 74 µM
U2OS [10]
  Activity: 17%
U2OS [11]
  inhibition: Active
[12]
  Activity: Toxic
U2OS [13]
  Activity: 23%
U2OS [14]
  inhibition: Active
[1]
  Activity: >90%
U2OS [15]
  Activity: 15%
U2OS [16]
  inhibition: Active

## SODIUM ORTHOVANAD
U2OS [17]
  Activity: 30%

## Oc1ccccc1C(c1ccccc1)N1CCc2ccccc21 (stereo unspecified)
U2OS [8]
  Activity: Active
[1]
  Activity: >90%

## C(=C\C(c1ccccn1)N1CCOCC1)/c1ccccc1 (stereo unspecified)
[1]
  Activity: 20%

## COc1ccc(C(c2ccccc2O)N2CCOCC2)cc1 (stereo unspecified)
[1]
  Activity: 20%

## C=Cc1ccc(C(c2ccccc2O)N2CCOCC2)cc1 (stereo unspecified)
[1]
  Activity: 20%

## Oc1ccccc1C(c1ccc(Cl)cc1)N1CCOCC1 (stereo unspecified)
[1]
  Activity: 20%

## Cc1ccc(C(c2ccccc2O)N2CCc3ccccc32)cc1 (stereo unspecified)
[1]
  Activity: 20%

## Oc1ccccc1C(/C=C/c1ccccc1)N1CCOCC1 (stereo unspecified)
[1]
  Activity: 20%
